Test results taken from patent publication US20120237941A1, “METHOD FOR SCREENING ACTIVE AGENTS THAT STIMULATE THE EXPRESSION OF ARNT2 TO IMPROVE THE SKIN'S BARRIER FUNCTION” (CHANEL PARFUMS BEAUTE, priority 2009, published 2012).

System: ARNT2 mRNA
Experiment: Stimulation of the expression of ARNT2 mRNA in normal human keratinocytes (real-time RT-PCR)
Format: cell-based
Conditions: 0.001% active agent (w/w), 24 hours, fold vs untreated control (1.00), housekeeping gene RPLPO
Description: Keratinocytes derived from neonatal foreskins (Invitrogen, CA, USA) were cultured in 6-well plates in keratinocyte culture medium with supplement (EpiLife, Invitrogen). After culturing for 24 hours at 37° C., the 70% confluent cells were washed with PBS buffer (Invitrogen, CA) and incubated with basic keratinocytes culture medium (EpiLife, Invitrogen) containing the active agent to be tested, for 24 hours, at increasing concentrations. The cytotoxicity of the active agent was evaluated in human cultured keratinocytes before testing the activity.
Keratinocytes were treated with various concentrations of active agent in triplicates for 24 hours. The mRNA was isolated using the Qiagen RNeasy kit (Qiagen, CA) and quantified using the QuantIt kit (Invitrogen, CA).
The PCR primers were obtained from Applied Biosystems (Applied Biosystems, CA). The housekeeping gene used was RPLPO.
To quantify the expression of messenger RNA of ARNT2 in a treated sample relative to an untreated sample, real-time polymerase chain amplification (RT-PCR) was performed. […]
The relative quantification of the expression of the target gene was performed using the Pfaffl mathematical model (Pfaffl, M W, Nucleic Acids Res. 29(9), p. E45, 2001). […]
The effect of this botanical extract on the expression of the ARNT2 mRNA was evaluated on cultured keratinocytes. […]

Structure (SMILES): CC(=O)Oc1cc(C=Cc2ccc(OC(=O)CCCCC3CCSS3)cc2)cc(OC(C)=O)c1 (stereo not shown) [Active agent tested, resveratrol 3,5-diacetate-4′-lipoate]
- Stimulation of ARNT2 mRNA: 1.81
